Results taken from US7781428B2 (Pfizer Inc., priority 2006, dated 2010).
Counter-ions that a name gives are not always drawn.

What follows are molecules tested against T1, mineralocorticoid receptor (MR) (Homo sapiens, UniProt P08235) (assay: Cell-based Gal4 response element-controlled luciferase reporter assay (MR antagonism)). Conditions: Huh7 human liver cells transfected with Gal4 DBD-MR LBD fusion and luciferase reporter; block of agonist-induced activation; overnight incubation.
T1 construct: expressed in transfected cells; host or cells: Huh7 (human liver cells)
T1 sequence (P08235 726-964 limits assumed): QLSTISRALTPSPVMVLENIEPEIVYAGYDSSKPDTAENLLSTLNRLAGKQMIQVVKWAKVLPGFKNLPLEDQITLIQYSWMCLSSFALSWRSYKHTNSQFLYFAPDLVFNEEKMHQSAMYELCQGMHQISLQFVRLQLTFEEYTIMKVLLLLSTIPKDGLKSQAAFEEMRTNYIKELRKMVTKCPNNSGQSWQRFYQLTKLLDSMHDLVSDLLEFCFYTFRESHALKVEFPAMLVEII
Outline: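 Transiently transfected Huh7 cells were treated with agonist at 70-80% of full activation plus compounds for 18-20 h in medium with charcoal/dextran-stripped serum. Luciferase read-out was normalized to β-galactosidase (ONPG, OD420); IC50 came from curve fitting.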

IC50 [nM]	SMILES
21	N#Cc1ccc(N2N=C3c4ccc(C(=O)O)cc4CCC3C2C2CCC2)cc1Cl (racemic) [Example 35, 2-(3-chloro-4-cyanophenyl)-3-cyclobutyl-3,3a,4,5-tetrahydro-2H-benzo[g] indazole-7-carboxylic acid]
711	Cc1cc(N2N=C3c4ccc(C(=O)O)cc4OCC3C2C2CC2)ccc1C#N (racemic) [Example 75, 2-(4-cyano-3-methylphenyl)-3-cyclopropyl-2,3,3a,4-tetrahydrochromeno[4,3-c]pyrazole-7-carboxylic acid]
12	CS(=O)(=O)CCNC(=O)c1ccc2c(c1)CCC1C2=NN(c2ccc(C#N)c(Cl)c2)C1c1ccc(F)cc1 (racemic) [Example 96, 2-(3-chloro-4-cyanophenyl)-3-(4-fluorophenyl)-N-(2-(methylsulfonyl)ethyl)-3,3a,4,5-tetrahydro-2H-benzo[g]indazole-7-carboxamide]
3	Cc1ccc([C@H]2[C@H]3CCc4cc(C(=O)NCCS(C)(=O)=O)ccc4C3=NN2c2ccc(C#N)c(Cl)c2)o1 [Example 117, (3R,3aR)-2-(3-chloro-4-cyanophenyl)-3-(5-methyl-2-furyl)-N-[2-(methylsulfonyl)ethyl]-3,3a,4,5-tetrahydro-2H-benzo[g]indazole-7-carboxamide]
26	Cc1cc(N2N=C3c4ccc(C(=O)O)cc4OC[C@@H]3[C@@H]2C2CCCC2)ccc1C#N (single isomer, unassigned) [Example 62]
973	N#Cc1ccc(N2N=C3c4ccc(C(=O)O)cc4OCC3C2c2ccc(F)cc2)cc1C(F)(F)F (racemic) [Example 54, 2-(4-cyano-3-(trifluoromethyl)phenyl)-3-(4-fluorophenyl)-2,3,3a,4-tetrahydrochromeno[4,3-c]pyrazole-7-carboxylic acid]
18	N#Cc1ccc(N2N=C3c4ccc(C(=O)O)cc4CC[C@@H]3[C@@H]2c2ccoc2)cc1Cl [Example 47, (3R,3aR)-2-(3-chloro-4-cyanophenyl)-3-(3-furyl)-3,3a,4,5-tetrahydro-2H-benzo[g]indazole-7-carboxylic acid]
1	CS(=O)(=O)CCNC(=O)c1ccc2c(c1)CC[C@H]1C2=NN(c2ccc(C#N)c(Cl)c2)[C@H]1C1CCCC1 [Example 114, (3S,3aR)-2-(3-chloro-4-cyanophenyl)-3-cyclopentyl-N-(2-(methylsulfonyl)ethyl)-3,3a,4,5-tetrahydro-2H-benzo[g]indazole-7-carboxamide]
4	Cc1cc(N2N=C3c4ccc(C(=O)O)cc4CC[C@@H]3[C@@H]2C2CCCC2)ccc1C#N (single isomer, unassigned) [Example 22]
3700	N#Cc1ccc(N2N=C3c4cc(C(=O)O)ccc4CCC3C2c2ccc(F)cc2)cc1Cl (racemic) [Example 5, 2-(3-chloro-4-cyanophenyl)-3-(4-fluorophenyl)-3,3a,4,5-tetrahydro-2H-benzo[g]indazole-8-carboxylic acid]
86	N#Cc1ccc(N2N=C3c4ccc(O)cc4CCC3C2c2ccc(F)cc2)cc1Cl (racemic) [Example 86, 2-chloro-4-(-3-(4-fluorophenyl)-7-hydroxy-3,3a,4,5-tetrahydrobenzo[g]indazol-2-yl)benzonitrile]
> 1000	Cc1cc(N2N=C3c4ccc(O)cc4CC[C@H]3[C@H]2c2ccc(F)cc2)ccc1C#N [Example 82, 4-((3S,3aS)-3-(4-fluorophenyl)-7-hydroxy-3,3a,4,5-tetrahydrobenzo[g]indazol-2-yl)-2-methylbenzonitrile]
57	N#Cc1ccc(N2N=C3c4ccc(C(=O)NCCN5CCCC5)cc4CC[C@@H]3[C@@H]2c2ccc(F)cc2)cc1Cl (racemic) [Example 111, (±)-(3RS,3aRS)-2-(3-chloro-4-cyanophenyl)-3-(4-fluorophenyl)-N-(2-(pyrrolidin-1-yl)ethyl)-3,3a,4,5-tetrahydro-2H-benzo[g] indazole-7-carboxamide]
35	N#Cc1ccc(N2N=C3c4ccc(C(=O)NCCC(N)=O)cc4CC[C@@H]3[C@@H]2c2ccc(F)cc2)cc1Cl (racemic) [Example 102, (±)-(3RS,3aRS)—N-(3-amino-3-oxopropyl)-2-(3-chloro-4-cyanophenyl)-3-(4-fluorophenyl)-3,3a,4,5-tetrahydro-2H-benzo[g]indazole-7-carboxamide]
19	Cc1ncc(C2C3CCc4cc(C(=O)NCCS(C)(=O)=O)ccc4C3=NN2c2ccc(C#N)c(Cl)c2)s1 (centres unmarked) [Example 118, 2-(3-chloro-4-cyanophenyl)-N-[2-(methylsulfonyl)ethyl]-3-(2-methyl-1,3-thiazol-5-yl)-3,3a,4,5-tetrahydro-2H-benzo[g]indazole-7-carboxamide]
13	COc1cc(N2N=C3c4ccc(C(=O)O)cc4CC[C@@H]3[C@@H]2C2CCCC2)ccc1C#N [Example 26, (3S,3aR)-2-(4-cyano-3-methoxyphenyl)-3-cyclopentyl-3,3a,4,5-tetrahydro-2H-benzo[g]indazole-7-carboxylic acid]
7	COc1cc(N2N=C3c4ccc(C(=O)O)cc4CCC3C2C2CCCC2)ccc1C#N (racemic) [Example 25, 2-(4-cyano-3-methoxyphenyl)-3-cyclopentyl-3,3a,4,5-tetrahydro-2H-benzo[g]indazole-7-carboxylic acid]
1550	N#Cc1ccc(N2N=C3c4cc(C(=O)NCCN5CCCC5)ccc4CC[C@@H]3[C@@H]2c2ccc(F)cc2)cc1Cl (racemic) [Example 112, (±)-(3RS13aRS)-2-(3-chloro-4-cyanophenyl)-3-(4-fluorophenyl)-N-(2-(pyrrolidin-1-yl)ethyl)-3,3a,4,5-tetrahydro-2H-benzo[g]indazole-8-carboxamide]
3350	N#Cc1ccc(N2N=C3c4ccc(C(=O)O)cc4OC[C@H]3[C@H]2C2CCCC2)cc1Cl [Example 66, (3R,3aS)-2-(3-chloro-4-cyanophenyl)-3-cyclopentyl-2,3,3a,4-tetrahydrochromeno[4,3-c]pyrazole-7-carboxylic acid]
> 1000	Cc1cc(N2N=C3c4ccc(C(=O)O)cc4OC[C@H]3[C@H]2C2CCCC2)ccc1C#N (single isomer, unassigned) [Example 63]
35	Cc1cc(N2N=C3c4ccc(O)cc4CC[C@@H]3[C@@H]2c2ccc(F)cc2)ccc1C#N [Example 81, 4-((3R,3aR)-3-(4-fluorophenyl)-7-hydroxy-3,3a,4,5-tetrahydrobenzo[g]indazol-2-yl)-2-methylbenzonitrile]
37.6	N#Cc1ccc(N2N=C3c4ccc(C(=O)O)cc4CC[C@@H]3[C@@H]2C2CCCC2)cc1 [Example 19, (3S,3aR)-2-(4-cyanophenyl)-3-cyclopentyl-3,3a,4,5-tetrahydro-2H-benzo[g]indazole-7-carboxylic acid]
> 1000	CN(C)Cc1cc(N2N=C3c4ccc(C(=O)O)cc4CCC3C2C2CCCC2)ccc1C#N (racemic) [Example 29, 2-(4-cyano-3-((dimethylamino)methyl)phenyl)-3-cyclopentyl-3,3a,4,5-tetrahydro-2H-benzo[g]indazole-7-carboxylic acid trifluoroacetate]
8100	N#Cc1ccc(N2N=C3c4ccc(C(=O)O)cc4OC[C@H]3[C@H]2C2CCCC2)cc1 [Example 72, (3R,3aS)-2-(4-cyanophenyl)-3-cyclopentyl-2,3,3a,4-tetrahydrochromeno[4,3-c]pyrazole-7-carboxylic acid]
> 1000	N#Cc1ccc(N2N=C3c4ccc(C(=O)O)cc4OCC3C2C2CC2)cc1Cl (racemic) [Example 76, 2-(3-chloro-4-cyanophenyl)-3-cyclopropyl-2,3,3a,4-tetrahydrochromeno[4,3-c]pyrazole-7-carboxylic acid]
720	N#Cc1ccc(N2N=C3c4ccc(C(=O)O)cc4CCC3C2C2CCOC2)cc1Cl (racemic) [Example 34, 2-(3-chloro-4-cyanophenyl)-3-((R)-tetrahydrofuran-3-yl)-3,3a,4,5-tetrahydro-2H-benzo[g]indazole-7-carboxylic acid and 2-(3-chloro-4-cyanophenyl)-3-((S)-tetrahydrofuran-3-yl)-3,3a,4,5-tetrahydro-2H-benzo[g]indazole-7-carboxylic acid]
16	N#Cc1ccc(N2N=C3c4ccc(C(=O)O)cc4CC[C@@H]3[C@@H]2c2ccco2)cc1Cl [Example 44, (3R,3aR)-2-(3-chloro-4-cyanophenyl)-3-(2-furyl)-3,3a,4,5-tetrahydro-2H-benzo[g]indazole-7-carboxylic acid]
146	N#Cc1ccc(N2N=C3c4ccc(C(=O)O)cc4OCC3C2C2CCCC2)cc1Cl (racemic) [Example 67, 2-(3-chloro-4-cyanophenyl)-3-cyclopentyl-2,3,3a,4-tetrahydrochromeno[4,3-c]pyrazole-7-carboxylic acid]

SMILES	IC50 [nM]
C[S+]([O-])CCNC(=O)c1ccc2c(c1)CC[C@H]1C2=NN(c2ccc(C#N)c(Cl)c2)[C@H]1C1CCOCC1 (mixture of isomers) [Example 99]	14
C[C@]12CCc3cc(C(=O)O)ccc3C1=NN(c1ccc(C#N)c(Cl)c1)[C@H]2C1CCCC1 [Example 94, (3S,3aR)-2-(3-chloro-4-cyanophenyl)-3-cyclopentyl-3a-methyl-3,3a,4,5-tetrahydro-2H-benzo[g]indazole-7-carboxylic acid]	25
Cc1ccc(C2C3CCc4cc(C(=O)O)ccc4C3=NN2c2ccc(C#N)c(Cl)c2)o1 (racemic) [Example 39]	22
Cc1ccc([C@H]2[C@H]3CCc4cc(C(=O)O)ccc4C3=NN2c2ccc(C#N)c(Cl)c2)o1 [Example 40, (3R,3aR)-2-(3-chloro-4-cyanophenyl)-3-(5-methyl-2-furyl)-3,3a,4,5-tetrahydro-2H-benzo[g]indazole-7-carboxylic acid]	6
